Usually IC50 stands for the concentration needed to halve the response being measured.

Where only a bound is given, the exact number is not on record here.

From US20120059162A1, “FUSED IMIDAZOLE DERIVATIVE HAVING TTK INHIBITORY ACTION” (Oncotherapy Science, Inc., priority 2009, published 2012) come the findings set out here.

For one assay, the target named is T1, TTK (Homo sapiens, UniProt P33981).
T1 sequence (P33981 1-857): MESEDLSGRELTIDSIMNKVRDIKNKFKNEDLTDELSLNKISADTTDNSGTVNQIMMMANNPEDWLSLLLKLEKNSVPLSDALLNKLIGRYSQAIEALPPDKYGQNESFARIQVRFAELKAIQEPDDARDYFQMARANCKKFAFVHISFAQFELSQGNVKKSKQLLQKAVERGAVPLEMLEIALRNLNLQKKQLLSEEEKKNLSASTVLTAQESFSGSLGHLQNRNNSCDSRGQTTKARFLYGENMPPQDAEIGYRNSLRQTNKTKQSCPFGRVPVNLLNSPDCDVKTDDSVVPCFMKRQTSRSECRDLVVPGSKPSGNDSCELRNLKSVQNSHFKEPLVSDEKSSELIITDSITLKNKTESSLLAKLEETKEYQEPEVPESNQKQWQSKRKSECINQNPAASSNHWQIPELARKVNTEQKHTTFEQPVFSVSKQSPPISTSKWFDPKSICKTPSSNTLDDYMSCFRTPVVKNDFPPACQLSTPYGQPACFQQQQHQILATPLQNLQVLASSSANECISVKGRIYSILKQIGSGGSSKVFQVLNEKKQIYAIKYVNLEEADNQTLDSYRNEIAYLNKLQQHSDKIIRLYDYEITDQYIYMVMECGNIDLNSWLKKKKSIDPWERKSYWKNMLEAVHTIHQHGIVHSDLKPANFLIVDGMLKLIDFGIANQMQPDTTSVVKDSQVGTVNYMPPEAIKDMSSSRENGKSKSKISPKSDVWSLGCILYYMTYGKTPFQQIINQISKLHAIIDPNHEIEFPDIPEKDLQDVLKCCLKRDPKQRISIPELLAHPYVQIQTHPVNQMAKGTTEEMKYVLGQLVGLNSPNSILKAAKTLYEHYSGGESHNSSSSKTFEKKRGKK
As to the kind of experiment: TTK assay: screening of TTK kinase activity suppressing action using p38 MAPK peptide. The assay is classed as biochemical. Particulars: p38 MAPK peptide substrate; read-out: TTK IC50. On the procedure:
Screening of a compound having a TTK kinase activity suppressing action using p38 MAPK peptide
A test substance 1.0 μL (solvent: 10% (v/v) DMSO), TTK solution 5 μL (composition: 4 μg/ml TTK, 25 mM Tris-HCl, pH7.5, 5 mM β-glycerophosphate, 2 mM DTT, 0.1 mM Na3VO4, 5 mM MgCl2, 0.1% (w/v)BSA) and a substrate solution 5 μL (composition: 60 μM p38 MAPK peptide, 60 μM ATP, 25 mM Tris-HCl, pH7.5, 5 mM β-glycerophosphate, 2 mM DTT, 0.1 mM Na3VO4, 5 mM MgCl2, 0.1% (w/v)BSA) were mixed in the wells of a 384-well microtiter plate (manufactured by Corning Incorporated) made of polypropylene and loaded in a constant temperature and humidity room.
From the resultant mixture, an aliquot of 1.7 μL was taken out and mixed with the reaction terminating solution (60 μl) in the wells of a 384-well microtiter plate (manufactured by Corning Incorporated) made of polypropylene. Thereafter, 40 μL of the mixture was transferred to a 384-well black NeutrAvidin plate (PIERCE), sealed and incubated under room temperature for 30 minutes. […] Similarly, the plate was washed with TTBS (100 μL) three times, 40 μl of a secondary antibody solution (Eu-N1 labeled Anti-mouse IgG (Perkin Elmer, #AD0124)) was added and incubated under room temperature for 30 minutes. After the plate was washed with TTBS (100 μL) five times, 40 μL of an enhance solution (Perkin Elmer) was added and incubated under room temperature for 5 minutes. […] Based on the fluorescence value in the absence of a test substance, the suppression activity of a test substance was measured.

The next assay relates to A549. The assay is described as follows: A549 assay: screening of cancer cell growth inhibiting compound. The assay is classed as cell-based. The settings on record: Homo sapiens, 72 h; A549 cells, three days, WST-8; read-out: A549 IC50. In a few lines:
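A549 cells (1×10^4/ml) in D-MEM with 10% FBS were pre-incubated one day at 37 °C, then exposed to compound dilutions for three further days. Viable cell number read by WST-8 (1–4 hours), absorbance 450 nm (reference 620 nm); inhibition calculated relative to untreated wells.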
For orientation: Tetrazolium assays rely on reduction of a dye to a coloured formazan, in cell work by metabolically active cells.

Take `CC(Nc1cc(NCC2CCOCC2)c2ncc(-c3ccc(C(=O)NC4CC4)cc3)n2n1)C(C)(C)C` (stereo not drawn) [Example 2-60]: the half-maximal inhibitory concentration (IC50) on TTK was 4.6 nM; in the assay on A549, at most 50 nM.
In the case of `CC(Nc1cc(NCC2CCOCC2)c2ncc(-c3ccc(C(=O)NC4CC4)cc3)n2n1)C(F)(F)F` (stereo not drawn) [Example 2-61], the IC50 on TTK was 5.1 nM; in the assay on A549 it was at most 50 nM.
The corresponding values for `O=C(NC1CC1)c1ccc(-c2cnc3c(NCC4CCOCC4)cc(N4CCCC4CO)nn23)cc1` (stereo not drawn) [Example 2-62] are 8.7 nM and 50 to 500 nM.
On to `CC1CCCCC1Nc1cc(NCC2CCOCC2)c2ncc(-c3ccc(C(=O)NC4CC4)cc3)n2n1` (stereo not drawn) [Example 2-63], for which the IC50 at TTK is 2.9 nM; in the assay with A549, at most 50 nM.
The matching figures for `O=C(NC1CC1)c1ccc(-c2cnc3c(NCC4CCOCC4)cc(NC45CC6CC(CC(C6)C4)C5)nn23)cc1` [Example 2-64]: 1.9 nM and at most 50 nM.
Turning to `COC[C@@H]1CCCN1c1cc(NCC2CCOCC2)c2ncc(-c3ccc(C(=O)NC4CC4)cc3)n2n1` [Example 2-66], the figures for the IC50 on TTK and in the assay with A549 were 4.5 nM and 50 to 500 nM, respectively.
The matching figures for `O=C(NC1CC1)c1ccc(-c2cnc3c(NCC4CCOCC4)cc(NC4CCC(F)(F)CC4)nn23)cc1` [Example 2-67]: 3.7 nM and 50 to 500 nM.
The matching figures for `CCC(C)(C)Nc1cc(NCC2CCOCC2)c2ncc(-c3ccc(C(=O)NC4CC4)cc3)n2n1` [Example 2-68]: 2.9 nM and at most 50 nM.
Consider `O=C(NC1CC1)c1ccc(-c2cnc3c(NCC4CCOCC4)cc(NC4CCCCC4O)nn23)cc1` (stereo not drawn) [Example 2-70], for which the IC50 at TTK is 4.5 nM; in the assay with A549 it was 50 to 500 nM.
In the case of `NC1CCCCC1Nc1cc(NCC2CCOCC2)c2ncc(-c3ccc(C(=O)NC4CC4)cc3)n2n1` (stereo not drawn) [Example 2-71], the IC50 is 9.4 nM at TTK and 1000 to 10000 nM in the assay on A549.
Regarding `CC1(Nc2cc(NCC3CCOCC3)c3ncc(-c4ccc(C(=O)NC5CC5)cc4)n3n2)CCS(=O)(=O)C1` (stereo not drawn) [Example 2-72], the IC50 is 3.9 nM at TTK and 50 to 500 nM in the assay with A549.
For the compound `O=C(NC1CC1)c1ccc(-c2cnc3c(NCC4CCOCC4)cc(NC4C5CC6CC(C5)CC4C6)nn23)cc1` (stereo not drawn) [Example 2-73], the results for the 50% inhibitory concentration (IC50) at TTK and with A549 were 3.5 nM and 50 to 500 nM, respectively.
Turning to `CC1(Nc2cc(NCC3CCOCC3)c3ncc(-c4ccc(C(=O)NC5CC5)cc4)n3n2)CCCCC1` [Example 2-74], the IC50 on TTK is 2.6 nM; in the assay on A549, at most 50 nM.
In the case of `CC1(Nc2cc(NCC3CCOCC3)c3ncc(-c4ccc(C(=O)NC5CC5)cc4)n3n2)CCCC1` [Example 2-75], the IC50 was 3.6 nM at TTK and at most 50 nM in the assay on A549.
The corresponding values for `C#CC(CC)(CC)Nc1cc(NCC2CCOCC2)c2ncc(-c3ccc(C(=O)NC4CC4)cc3)n2n1` [Example 2-76] are 18.9 nM and 500 to 1000 nM.
Consider `C#CC1(Nc2cc(NCC3CCOCC3)c3ncc(-c4ccc(C(=O)NC5CC5)cc4)n3n2)CCCCC1` [Example 2-77], for which the figures for the IC50 on TTK and in the assay on A549 were 21.3 nM and 500 to 1000 nM, respectively.
Take `CC(C)C(Nc1cc(NCC2CCOCC2)c2ncc(-c3ccc(C(=O)NC4CC4)cc3)n2n1)C(F)(F)F` (stereo not drawn) [Example 2-78]: the figures for the IC50 at TTK and in the assay on A549 were 3.5 nM and at most 50 nM, respectively.
In the case of `CC1(Nc2cc(NCC3CCOCC3)c3ncc(-c4ccc(C(=O)NC5CC5)cc4)n3n2)CCOCC1` [Example 2-79], the half-maximal inhibitory concentration (IC50) on TTK was 5.9 nM; in the assay on A549 it was 50 to 500 nM.
`O=C(NC1CC1)c1ccc(-c2cnc3c(NCC4CCOCC4)cc(NC4CCCC(F)(F)C4)nn23)cc1` (stereo not drawn) [Example 2-80]: the IC50 on TTK was 4 nM; in the assay on A549, at most 50 nM.
The corresponding values for `CC(C)(C)CC(C)(C)Nc1cc(NCC2CCOCC2)c2ncc(-c3ccc(C(=O)NC4CC4)cc3)n2n1` [Example 2-81] are 4 nM and at most 50 nM.
The matching figures for `CC(C)C(C)(C)Nc1cc(NCC2CCOCC2)c2ncc(-c3ccc(C(=O)NC4CC4)cc3)n2n1` [Example 2-82]: 6 nM and at most 50 nM.
As to `O=C(NC1CC1)c1ccc(-c2cnc3c(NCC4CCOCC4)cc(NC4CCCOC4)nn23)cc1` (stereo not drawn) [Example 2-83], the IC50 at TTK was 5.2 nM; in the assay on A549, 50 to 500 nM.
On to `CC(Nc1cc(NCC2CCOCC2)c2ncc(-c3ccc(C(=O)NC4CC4)cc3)n2n1)c1cccs1` (stereo not drawn) [Example 2-84], for which the IC50 on TTK is 7.5 nM; with A549 it was 50 to 500 nM.
Take `C#CC(C)(C)Nc1cc(NCC2CCOCC2)c2ncc(-c3ccc(C(=O)NC4CC4)cc3)n2n1` [Example 2-85]: the figures for the concentration for half-maximal inhibition (IC50) on TTK and in the assay with A549 were 4 nM and 1000 to 10000 nM, respectively.
With `CCC(C)Nc1cc(NCC2CCOCC2)c2ncc(-c3ccc(C(=O)NC4CC4)cc3)n2n1` (stereo not drawn) [Example 2-87, 4-(6-(sec-Butylamino)-8-((tetrahydro-2H-pyran-4-yl)methylamino)imidazo[1,2-b]pyridazin-3-yl)-N-cyclopropylbenzamide], the IC50 on TTK is 6.2 nM; in the assay on A549 it was 50 to 500 nM.
For `O=C(NC1CC1)c1ccc(-c2cnc3c(OCC4CCOCC4)cc(NC4CCCCC4)nn23)cc1` [Example 2-89, 4-(6-(Cyclohexylamino)-8-((tetrahydro-2H-pyran-4-yl)methoxy)imidazo[1,2-b]pyridazin-3-yl)-N-cyclopropylbenzamide], the 50% inhibitory concentration (IC50) on TTK was 5 nM; in the assay with A549, 50 to 500 nM.
`O=C(NC1CC1)c1ccc(-c2cnc3c(NCC4CCOCC4)cc(Oc4ccccc4Cl)nn23)cc1` [Example 2-90, 4-(6-(2-Chlorophenoxy)-8-((tetrahydro-2H-pyran-4-yl)methylamino)imidazo[1,2-b]pyridazin-3-yl)-N-cyclopropylbenzamide]: the IC50 at TTK is 2.7 nM; with A549 it was 50 to 500 nM.
Take `Nc1cccc(Oc2cc(NCC3CCOCC3)c3ncc(-c4ccc(C(=O)NC5CC5)cc4)n3n2)c1` [Example 2-91]: the IC50 was 2.3 nM on TTK and at most 50 nM in the assay on A549.
Regarding `Nc1ccc(Oc2cc(NCC3CCOCC3)c3ncc(-c4ccc(C(=O)NC5CC5)cc4)n3n2)cc1` [Example 2-92], the half-maximal inhibitory concentration (IC50) is 4 nM at TTK and 50 to 500 nM in the assay on A549.
As for `O=C(NC1CC1)c1ccc(-c2cnc3c(NCC4CCOCC4)cc(Oc4ccc(Cl)cc4)nn23)cc1` [Example 2-93], the concentration for half-maximal inhibition (IC50) was 3.3 nM at TTK and 50 to 500 nM with A549.
The corresponding values for `COc1ccccc1Oc1cc(NCC2CCOCC2)c2ncc(-c3ccc(C(=O)NC4CC4)cc3)n2n1` [Example 2-95] are 2.5 nM and 50 to 500 nM.
Consider `O=C(NC1CC1)c1ccc(-c2cnc3c(NCC4CCOCC4)cc(Oc4ccccc4C(F)(F)F)nn23)cc1` [Example 2-96], for which the concentration for half-maximal inhibition (IC50) was 7.5 nM at TTK and 50 to 500 nM with A549.
Regarding `Nc1ccccc1Oc1cc(NCC2CCOCC2)c2ncc(-c3ccc(C(=O)NC4CC4)cc3)n2n1` [Example 2-97], the results for the IC50 on TTK and in the assay with A549 were 3.3 nM and at most 50 nM, respectively.
On to `Nc1c(F)cccc1Oc1cc(NCC2CCOCC2)c2ncc(-c3ccc(C(=O)NC4CC4)cc3)n2n1` [Example 2-98], for which the values for the 50% inhibitory concentration (IC50) on TTK and in the assay with A549 were 2.4 nM and at most 50 nM, respectively.
The corresponding values for `Cc1ccccc1Oc1cc(NCC2CCOCC2)c2ncc(-c3ccc(C(=O)NC4CC4)cc3)n2n1` [Example 2-101] are 2.5 nM and 50 to 500 nM.
In the case of `Cc1cccc(Oc2cc(NCC3CCOCC3)c3ncc(-c4ccc(C(=O)NC5CC5)cc4)n3n2)c1` [Example 2-102], the IC50 is 3 nM on TTK and 50 to 500 nM with A549.
